According to article PMC8512853, “Synthesis, Bioactivity, Pharmacokinetic and Biomimetic Properties of Multi-Substituted Coumarin Derivatives” (Molecules, 2021):

Experiments:
[1] = target: T1, soybean LOX (Glycine max, UniProt P08170); test: Inhibition of soybean LOX; assay type: biochemical; conditions: for inhibition at 100 µM: read-out: Soybean LOX % inhibition (100 μΜ)
T1 construct: purchased Sigma-Aldrich and Fluka
T1 sequence (P08170 1-839): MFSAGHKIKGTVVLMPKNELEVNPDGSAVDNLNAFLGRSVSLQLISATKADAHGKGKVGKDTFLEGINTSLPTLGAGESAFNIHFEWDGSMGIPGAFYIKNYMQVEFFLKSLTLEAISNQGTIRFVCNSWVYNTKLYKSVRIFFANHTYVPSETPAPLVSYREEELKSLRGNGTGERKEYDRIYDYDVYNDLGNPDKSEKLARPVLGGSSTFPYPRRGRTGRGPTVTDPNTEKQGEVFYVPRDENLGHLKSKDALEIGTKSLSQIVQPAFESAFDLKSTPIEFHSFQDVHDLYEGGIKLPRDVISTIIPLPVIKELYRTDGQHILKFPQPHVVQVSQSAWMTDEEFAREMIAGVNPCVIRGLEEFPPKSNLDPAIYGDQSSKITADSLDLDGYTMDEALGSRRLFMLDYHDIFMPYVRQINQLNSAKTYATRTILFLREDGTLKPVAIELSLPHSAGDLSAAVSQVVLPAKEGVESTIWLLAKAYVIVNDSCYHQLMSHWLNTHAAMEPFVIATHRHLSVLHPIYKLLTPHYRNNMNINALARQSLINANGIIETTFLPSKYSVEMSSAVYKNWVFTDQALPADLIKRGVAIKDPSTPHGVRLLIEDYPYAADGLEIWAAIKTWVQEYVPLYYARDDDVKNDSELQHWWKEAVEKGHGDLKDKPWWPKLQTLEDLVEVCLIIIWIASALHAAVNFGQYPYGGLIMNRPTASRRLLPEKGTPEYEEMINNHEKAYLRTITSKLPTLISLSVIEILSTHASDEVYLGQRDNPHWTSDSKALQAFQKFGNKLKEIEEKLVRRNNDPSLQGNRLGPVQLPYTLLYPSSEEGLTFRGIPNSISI
Protocol: Soybean LOX is a plant enzyme which has been used widely as a prototype for studying the functional and structural properties of the homologous family of lipoxygenases, presenting satisfactory homology with the human 5-LOX [14]. Linoleic acid (LA) is a standard substrate for plant LOXs. In this protocol, all new molecules were tested as inhibitors of soybean LOX as an indication of their anti-inflammatory activity (Table 3).
For the reference sample in a UV cuvette 10 μL of the test sample (100 μM diluted in DMSO), 200 μL LOX solution (diluted in NaCl 0.9%), 100 μL LA (diluted in Tris buffer) and Tris buffer solution (pH 9) were added to a final volume of 1 mL. Respectively for the measurement sample, also in a UV cuvette 10 μL of test sample, 200 μL LOX solution, and Tris buffer solution (pH 9) were added to a final volume of 1mL. Standard and blank samples were prepared in the same way using DMSO (solvent) instead of the tested coumarin analogues.

[2] = system: A549 cells; test: MTT cytotoxicity assay, A549; assay type: cell-based, human; conditions: 24 h; for cytotoxicity at 100 µM: Homo sapiens, A549, 100 μΜ, read-out: Cell Toxicity A549 % (100 μΜ)
Protocol: (§1) Furthermore, the coumarin compounds synthesized in this study were also evaluated for their cytotoxicity against A549 (adenocarcinomic human alveolar basal epithelial cells) and A375 (human melanoma) cell lines.
(§2) This protocol was used for the evaluation of cell viability and all the cell lines. It must be noted that this assay describes the count of cells that remain alive after the treatment. For the experimental procedure a standard solution of MTT 1mg/mL in PBS was prepared which after filtration ([…] filter (Millipore, Carrigtwohill, Ireland)) was stored in the dark (4–8 °C) until use. In a 96-well plate, HaCaT, A549 and A375 cells were seeded in a number of 30 × 10^4 cells/well for each evaluation series respectively. The cells were incubated (37 °C, 5% CO2) for 24 h, followed by the addition of the tested analogues (100 μM, diluted in DMEM) and another 24-h incubation. Next, appropriate amount of MTT was added in the tested wells and the plate returned to the incubator for the next 4 h for the formation of the formazan crystals. The formazan crystals were then redissolved by adding DMSO (100 μL) and stirring lightly for 40 min, after which the absorbance was measured in a plate reader at 540 nm with a reference absorbance of 720 nm.
(§3) All samples were tested in triplicate, against a control (only cells), blank (no cells), and positive control (100 μM standard silibinin solution was used as a “cell-killing” standard).

[3] = system: A375 cells; test: MTT cytotoxicity assay, A375; assay type: cell-based, human; conditions: Homo sapiens, A-375, 24 h, A375, 100 μΜ, read-out: Cell Toxicity A375 % (100 μΜ)
Protocol: as §1, §2, §3

[4] = target: T2, human serum albumin (HSA) (Homo sapiens, UniProt P02768); test: HSA chromatography and estimated plasma protein binding; assay type: in vitro ADME; conditions: for fraction unbound: human, immobilized human serum albumin (HSA) column, Equation (2) from logk10, pH 7.00, read-out: %PPB estimated plasma protein binding (converted); for logk10 (HSA retention factor): pH 7.00, 10% acetonitrile
T2 construct: purchased CHIRAL PAK
T2 sequence (P02768 25-609): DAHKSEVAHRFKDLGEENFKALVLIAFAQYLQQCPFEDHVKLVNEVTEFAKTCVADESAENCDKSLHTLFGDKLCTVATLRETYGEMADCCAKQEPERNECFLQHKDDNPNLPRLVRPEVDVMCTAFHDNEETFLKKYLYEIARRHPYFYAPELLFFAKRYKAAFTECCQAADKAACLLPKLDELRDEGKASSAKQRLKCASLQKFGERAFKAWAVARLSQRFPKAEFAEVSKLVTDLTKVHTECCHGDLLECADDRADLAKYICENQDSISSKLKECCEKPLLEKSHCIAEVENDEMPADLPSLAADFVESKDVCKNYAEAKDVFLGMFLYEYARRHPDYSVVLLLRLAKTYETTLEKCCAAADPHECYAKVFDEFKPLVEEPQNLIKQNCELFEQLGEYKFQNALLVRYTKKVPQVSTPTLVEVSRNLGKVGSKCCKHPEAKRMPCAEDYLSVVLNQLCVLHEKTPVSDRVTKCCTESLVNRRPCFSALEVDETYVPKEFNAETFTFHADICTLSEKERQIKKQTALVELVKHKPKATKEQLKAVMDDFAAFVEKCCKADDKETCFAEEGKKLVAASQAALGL
Protocol: The novel coumarin derivatives were also studied using the immobilized protein column HSA. An HSA chromatographic column provides estimates on the binding affinities of chemicals to human serum albumin, which is the most abundant plasma protein and is related to drug efficacy, drug—drug pharmacokinetic interactions, and drug safety. HSA binding can be considered to represent almost the total plasma protein binding of a drug.
Retention factors on the HSA stationary phase were measured using as eluent PBS at pH = 7.00 and a flow rate of 1 mL/min in the presence of 10% acetonitrile.
(2) % PPB=101∗10^logk10/1+10^logk10
The physicochemical and biomimetic properties of the new coumarin analogues were studied using liquid chromatography (HPLC) in 220–230 nm Two types of chromatographic columns were used: (i) immobilized artificial membrane (IAM) ([…].PC.DD.2, Regis Technologies) column and (ii) human serum albumin (HSA) (CHIRAL PAK) column.
The training set consisted of 25 neutral and slightly acidic compounds. Their IAM retention factors were measured at pH 7.40 on a IAM.PC.DD.2 column. The mobile phase consisted of acetonitrile solvent (CH3CN) in various concentrations (10%, 15%, 20%, 25%, 30%) and a flow rate of 3 mL/min was selected. Their HSA retention factors were measured at pH 7.00 on HSA column. The mobile phase consisted of acetonitrile solvent (CH3CN) in 10% concentration and a flow rate of 1 mL/min was selected.
The different pH values (7.00 for HSA and 7.40 for IAM) were measured with an electronic pH meter MP125 and were achieved by preparing suitable buffers of phosphates and chlorides (0.12 g KH2PO4, 0.72 g Na2HPO4·2H2O, 4.00 g NaCl and 0.10 g KCl). Sodium citrate solution was used to determine the dead time, which was deducted from the results at the end of measurements. The elution time of each coumarin analogue was measured at least three times. Retention times were converted into logk values, which represent the logarithm of the retention indexes, using Equation (8). (8) logk=log(tr−t0/t0) where tr is the retention time of the coumarin derivative and t0 is the dead time.

| SMILES | IC50 [1] [µM] | cytotoxicity at 100 µM [2] [%] | cytotoxicity at 100 µM [3] [%] | fraction unbound [4] | logk10 (HSA retention factor) [4] | Soybean LOX % inhibition (100 μΜ) [1] | Cell Toxicity A549 % (100 μΜ) [2] | inhibition at 100 µM [1] [%] |
| --- | --- | --- | --- | --- | --- | --- | --- | --- |
| CC(=O)Oc1cccc2oc(=O)c(-c3cccc(Cl)c3)c(C)c12 [Compound 3b, 5-acetyloxy-3-(3-chlorophenyl)-4-methyl-chromen-2-one] | 31.6 | 24.6 | > 60 | 0.128 | 0.80 | – | – | – |
| CC(=O)Oc1cccc2oc(=O)c(-c3ccc(Cl)cc3)c(C)c12 [Compound 3c, 5-acetyloxy-3-(4-chlorophenyl)-4-methyl-chromen-2-one] | – | – | 24.8 | 0.091 | 0.96 | no | no | – |
| Cc1c(-c2ccc(Cl)cc2)c(=O)oc2cccc(O)c12 [Compound 4c, 3-(4-chlorophenyl)-5-hydroxy-4-methyl-chromen-2-one] | – | 54.5 | 22.2 | 0.152 | 0.72 | – | – | 0.9 |
| CC(=O)Oc1cccc2oc(=O)c(-c3ccccc3Cl)c(C)c12 [Compound 3a, 5-acetyloxy-3-(2-chlorophenyl)-4-methyl-chromen-2-one] | – | – | 38.7 | 0.202 | 0.57 | inactive | no | 17 |
| CC(=O)Oc1cccc2oc(=O)c(-c3ccc(F)cc3)c(C)c12 [Compound 3f, 5-acetyloxy-3-(4-fluorophenyl)-4-methyl-chromen-2-one] | – | – | 35.8 | 0.206 | 0.57 | inactive | no | 20.1 |
| Cc1c(-c2ccc(O)cc2)c(=O)oc2ccc(Br)cc12 [Compound 4i, 6-bromo-3-(4-hydroxyphenyl)-4-methyl-chromen-2-one] | – | 21.7 | 6.48 | 0.043 | 1.26 | – | – | 19.3 |
| CC(=O)Oc1ccc(-c2c(C)c3cc(Cl)ccc3oc2=O)cc1OC(C)=O [Compound 3n, 3-(4,5-diacetyloxyphenyl)-6-chloro-4-methyl-chromen-2-one] | 56.5 | – | 11.5 | 0.145 | 0.74 | – | no | – |
| CC(=O)Oc1cccc2oc(=O)c(-c3cccc(Br)c3)c(C)c12 [Compound 3g, 5-acetyloxy-3-(3-bromophenyl)-4-methyl-chromen-2-one] | 40.5 | – | 7.02 | 0.12 | 0.83 | – | no | – |
| CC(=O)Oc1ccc(-c2c(C)c3cc(Br)ccc3oc2=O)cc1 [Compound 3i, 3-(4-acetyloxyphenyl)-6-bromo-4-methyl-chromen-2-one] | – | – | 50 to 60 | 0.059 | 1.14 | – | no | 46.5 |
